Data published in patent publication US20240158394A1, “NEK7 INHIBITORS” (Halia Therapeutics, Inc., priority 2022, published 2024).

biological target: full-length recombinant human NEK7 (Homo sapiens (Human), UniProt Q8TDX7); assay: NEK7 Enzymatic Assay; format: biochemical; settings: casein substrate, [33P]-ATP, 2 hours at room temperature
Experimental: Casein substrate (from bovine milk, hydrolyzed and partially dephosphorylated mixture of α, β and κ caseins, obtained from Sigma Aldrich, catalogue #C4765, diluted in distilled water to a final concentration of 1 mg/mL) and full-length recombinant human NEK7 (expressed by baculovirus in Sf9 insect cells using a N-terminal GST tag, obtained from SignalChem, catalogue #N09-10G, 0.1 μg/μL) were mixed in assay buffer (20 mM HEPES pH 7.5, 10 mM MgCl2, 1 mM EGTA, 0.02% Brij35, 0.02 mg/mL BSA, 0.1 mM Na3VO4, 2 mM DTT, 1% DMSO). Compounds of interest (serial 3-fold dilution in DMSO from 10 μM to 0.5 nM) or vehicle (1% DMSO) were dispensed into the kinase reaction mixture by Acoustic technology (Echo550; nanoliter range). After incubation at room temperature for 20 minutes, the kinase reaction was initiated by addition of [^33P]-ATP (specific activity 10 μCi/μL) and the mixture was incubated at room temperature for 2 hours. The reaction was then stopped by spotting the reaction mixture on strips of phosphocellulose P81 paper. Following washing, the radioactivity of the P81 paper was measured and kinase activity data were expressed as the percent remaining kinase activity in test samples compared to vehicle reactions. IC50 values and curve fits were obtained using Prism (GraphPad Software).

Chain of full-length recombinant human NEK7 (Q8TDX7 whole entry): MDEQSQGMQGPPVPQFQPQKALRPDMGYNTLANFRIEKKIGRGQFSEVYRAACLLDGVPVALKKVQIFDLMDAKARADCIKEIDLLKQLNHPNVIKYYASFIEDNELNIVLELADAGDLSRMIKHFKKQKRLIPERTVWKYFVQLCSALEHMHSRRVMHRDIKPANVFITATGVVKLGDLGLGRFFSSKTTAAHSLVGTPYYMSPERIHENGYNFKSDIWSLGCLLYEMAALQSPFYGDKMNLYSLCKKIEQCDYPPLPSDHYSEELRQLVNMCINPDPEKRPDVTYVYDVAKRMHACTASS

Compound | IC50 [µM]
CC1(c2cc(NC(=O)Nc3ccc(-c4cn(C5CC5)c5ncnc(N)c45)c4ccncc34)on2)CC1 [Example I-6, 1-(5-(4-amino-7-cyclopropyl-7H-pyrrolo[2,3-d]pyrimidin-5-yl)isoquinolin-8-yl)-3-(3-(1-methylcyclopropyl)isoxazol-5-yl)urea] | 0.2 to 0.5
CN1CCN(Cc2ccc(NC(=O)Nc3ccc(-c4cn(C5CC5)c5ncnc(N)c45)c4nonc34)cc2C(F)(F)F)CC1 [Example I-78, 1-(7-(4-amino-7-cyclopropyl-7H-pyrrolo[2,3-d]pyrimidin-5-yl)benzo[c][1,2,5]oxadiazol-4-yl)-3-(4-((4-methylpiperazin-1-yl)methyl)-3-(trifluorometh-yl)phenyl)urea] | < 0.2
CC(C)(C)c1cc(NC(=O)Nc2ccc(-c3cn(C4CC4)c4ncnc(N)c34)c3ccncc23)on1 [Example I-5, 1-(5-(4-amino-7-cyclopropyl-7H-pyrrolo[2,3-d]pyrimidin-5-yl)isoquinolin-8-yl)-3-(3-(tert-butyl)isoxazol-5-yl)urea] | < 0.2
CCc1cc(NC(=O)Nc2ccc(-c3cn(C4CC4)c4ncnc(N)c34)n3ccnc23)on1 [Example I-15, 1-(5-(4-amino-7-cyclopropyl-7H-pyrrolo[2,3-d]pyrimidin-5-yl)imidazo[1,2-a]pyridin-8-yl)-3-(3-ethylisoxazol-5-yl)-urea] | 0.2 to 0.5
Nc1ncnc2c1c(-c1ccc(NC(=O)Nc3cc(C4(C(F)(F)F)CC4)no3)c3occc13)cn2C1CC1 [Example I-64, 1-(4-(4-amino-7-cyclopropyl-7H-pyrrolo[2,3-d]pyrimidin-5-yl)benzofuran-7-yl)-3-(3-(1-(trifluoromethyl)cyclo-propyl)isoxazol-5-yl)urea] | > 2
COCCN1CCN(Cc2ccc(NC(=O)Nc3ccc(-c4cn(C5CC5)c5ncnc(N)c45)n4ccnc34)cc2C(F)(F)F)CC1 [Example I-40, 1-(5-(4-amino-7-cyclopropyl-7H-pyrrolo[2,3-d]pyrimidin-5-yl)imidazo[1,2-a]pyridin-8-yl)-3-(4-((4-(2-methoxyeth-yl)piperazin-1-yl)methyl)-3-(trifluoromethyl)phenyl)urea] | < 0.2
CC(C)n1cc(-c2ccc(NC(=O)Nc3ccc(OC4CCN(C)CC4)c(C(F)(F)F)c3)c3nccn23)c2c(N)ncnc21 [Example I-135, 1-(5-(4-amino-7-isopropyl-7H-pyrrolo[2,3-d]pyrimidin-5-yl)imidazo[1,2-a]pyridin-8-yl)-3-(4-((1-methylpiperidin-4-yl)oxy)-3-(trifluoromethyl)-phenyl)urea] | < 0.2
Cc1cc(NC(=O)Nc2ccc(-c3cn(C4CC4)c4ncnc(N)c34)n3ccnc23)no1 [Example I-24, 1-(5-(4-amino-7-cyclopropyl-7H-pyrrolo[2,3-d]pyrimidin-5-yl)imidazo[1,2-a]pyridin-8-yl)-3-(5-methylisoxazol-3-yl)urea] | > 2
CC(C)(O)Cn1cc(-c2ccc(NC(=O)Nc3cc(C4(C(F)(F)F)CC4)on3)c3nccn23)c2c(N)ncnc21 [Example I-86, 1-(5-(4-amino-7-(2-hydroxy-2-methylpropyl)-7H-pyrrolo-[2,3-d]pyrimidin-5-yl)-imidazo[1,2-a]pyridin-8-yl)-3-(5-(1-(trifluoromethyl)-cyclopropyl)isoxazol-3-yl)urea] | < 0.2
Nc1ncnc2c1c(-c1ccc(NC(=O)Nc3cc(C4(C(F)(F)F)CCC4)on3)c3nccn13)cn2C1CC1 [Example I-33, 1-(5-(4-amino-7-cyclopropyl-7H-pyrrolo[2,3-d]pyrimidin-5-yl)imidazo[1,2-a]pyridin-8-yl)-3-(5-(1-(trifluoromethyl)-cyclobutyl)isoxazol-3-yl)urea] | 0.2 to 0.5
CC(C)c1cc(NC(=O)Nc2ccc(-c3cn(C4CC4)c4ncnc(N)c34)n3ccnc23)on1 [Example I-16, 1-(5-(4-amino-7-cyclopropyl-7H-pyrrolo[2,3-d]pyrimidin-5-yl)imidazo[1,2-a]pyridin-8-yl)-3-(3-isopropylisoxazol-5-yl)urea] | < 0.2
CCN1CCC(Oc2ccc(NC(=O)Nc3ccc(-c4cn(C5CC5)c5ncnc(N)c45)c4cnoc34)cc2C(F)(F)F)CC1 [Example I-125, 1-(4-(4-amino-7-cyclopropyl-7H-pyrrolo[2,3-d]pyrimidin-5-yl)benzo[d]isoxazol-7-yl)-3-(4-((1-ethylpiperidin-4-yl)oxy)-3-(trifluoromethyl)phenyl)urea] | 0.2 to 0.5
Cn1cc(-c2ccc(NC(=O)Nc3cc(C4(C(F)(F)F)CC4)on3)c3nccn23)c2c(N)ncnc21 [Example I-126, 1-(5-(4-amino-7-methyl-7H-pyrrolo[2,3-d]pyrimidin-5-yl)imidazo[1,2-a]pyridin-8-yl)-3-(5-(1-(trifluoromethyl)-cyclopropyl)isoxazol-3-yl)urea] | < 0.2

Further lines, results first:

IC50 [µM] | Compound
< 0.2 | CN1CCN(Cc2ccc(NC(=O)Nc3ccc(-c4cn(CC(C)(C)O)c5ncnc(N)c45)n4ccnc34)cc2C(F)(F)F)CC1 [Example I-131, 1-(5-(4-amino-7-(2-hydroxy-2-methylpropyl)-7H-pyrrolo[2,3-d]pyrimidin-5-yl)imidazo[1,2-a]pyridin-8-yl)-3-(4-((4-meth-ylpiperazin-1-yl)methyl)-3-(trifluoromethyl)phenyl)urea]
0.5 to 2 | CN1CCC(Oc2ccc(NC(=O)Nc3ccc(-c4cn(C5CC5)c5ncnc(N)c45)c4ccoc34)cc2C(F)(F)F)CC1 [Example I-67, 1-(4-(4-amino-7-cyclopropyl-7H-pyrrolo[2,3-d]pyrimidin-5-yl)benzofuran-7-yl)-3-(4-((1-methylpiperidin-4-yl)oxy)-3-(trifluoromethyl)phenyl)urea]
< 0.2 | CN1CCN(Cc2ccc(NC(=O)Nc3ccc(-c4cn(CCO)c5ncnc(N)c45)n4ccnc34)cc2C(F)(F)F)CC1 [Example I-130, 1-(5-(4-amino-7-(2-hydroxy-ethyl)-7H-pyrrolo[2,3-d]pyr-imidin-5-yl)imidazo[1,2-a]-pyridin-8-yl)-3-(4-((4-meth-ylpiperazin-1-yl)methyl)-3-(trifluoromethyl)phenyl)urea]
< 0.2 | CCN1CCC(Oc2ccc(NC(=O)Nc3ccc(-c4cn(C5CCC5)c5ncnc(N)c45)n4ccnc34)cc2C(F)(F)F)CC1 [Example I-137, 1-(5-(4-amino-7-cyclobutyl-7H-pyrrolo[2,3-d]pyrimidin-5-yl)imidazo[1,2-a]pyridin-8-yl)-3-(4-((1-ethylpiperidin-4-yl)oxy)-3-(trifluoromethyl)-phenyl)urea]
< 0.2 | CC(C)n1cc(-c2ccc(NC(=O)Nc3ccc(CN4CCN(C)CC4)c(C(F)(F)F)c3)c3nccn23)c2c(N)ncnc21 [Example I-128, 1-(5-(4-amino-7-isopropyl-7H-pyrrolo[2,3-d]pyrimidin-5-yl)imidazo[1,2-a]pyridin-8-yl)-3-(4-((4-methylpiperazin-1-yl)methyl)-3-(trifluorometh-yl)phenyl)urea]
< 0.2 | CC(C)(c1cc(NC(=O)Nc2ccc(-c3cn(C4CC4)c4ncnc(N)c34)n3ccnc23)no1)C(F)(F)F [Example I-31, 1-(5-(4-amino-7-cyclopropyl-7H-pyrrolo[2,3-d]pyrimidin-5-yl)imidazo[1,2-a]pyridin-8-yl)-3-(5-(1,1,1-trifluoro-2-methylpropan-2-yl)isoxazol-3-yl)urea]
< 0.2 | CC(C)(C)c1cc(NC(=O)Nc2ccc(-c3cn(C4CC4)c4ncnc(N)c34)n3ccnc23)no1 [Example I-27, 1-(5-(4-amino-7-cyclopropyl-7H-pyrrolo[2,3-d]pyrimidin-5-yl)imidazo[1,2-a]pyridin-8-yl)-3-(5-(tert-butyl)isoxazol-3-yl)urea]
< 0.2 | CN1CCN(Cc2cc(NC(=O)Nc3ccc(-c4cn(C5CC5)c5ncnc(N)c45)n4ccnc34)cc(C(F)(F)F)c2)CC1 [Example I-36, 1-(5-(4-amino-7-cyclopropyl-7H-pyrrolo[2,3-d]pyrimidin-5-yl)imidazo[1,2-a]pyridin-8-yl)-3-(3-((4-methylpiperazin-1-yl)methyl)-5-(trifluorometh-yl)phenyl)urea]
> 2 | CCN1CCC(Oc2ccc(NC(=O)Nc3ccc(-c4cn(C5CC5)c5ncnc(N)c45)c4c3OC(C)(C)C4)cc2C(F)(F)F)CC1 [Example I-123, 1-(4-(4-amino-7-cyclopropyl-7H-pyrrolo[2,3-d]pyrimidin-5-yl)-2,2-dimethyl-2,3-dihydrobenzofuran-7-yl)-3-(4-((1-ethylpiperidin-4-yl)oxy)-3-(trifluoromethyl)phenyl)urea]
< 0.2 | CC1(c2cc(NC(=O)Nc3ccc(-c4cn(C5CC5)c5ncnc(N)c45)n4ccnc34)on2)CC1 [Example I-18, 1-(5-(4-amino-7-cyclopropyl-7H-pyrrolo[2,3-d]pyrimidin-5-yl)imidazo[1,2-a]pyridin-8-yl)-3-(3-(1-methylcyclo-propyl)isoxazol-5-yl)urea]
0.2 to 0.5 | Nc1ncnc2c1c(-c1ccc(NC(=O)Nc3cc(C4CC4)no3)c3nccn13)cn2C1CC1 [Example I-119, 1-(5-(4-amino-7-cyclopropyl-7H-pyrrolo[2,3-d]pyrimidin-5-yl)imidazo[1,2-a]pyridin-8-yl)-3-(3-cyclopropylisoxazol-5-yl)urea]
> 2 | Nc1ncnc2c1c(-c1ccc(NC(=O)Nc3cc(C4(C(F)(F)F)CC4)no3)c3ncccc13)cn2C1CC1 [Example I-3, 1-(5-(4-amino-7-cyclopropyl-7H-pyrrolo[2,3-d]pyrimidin-5-yl)quinolin-8-yl)-3-(3-(1-(trifluoromethyl)cyclopropyl)-isoxazol-5-yl)urea]
